Data on one compound can be found in patent publication US10098895B2, “Treatment of symptoms related to neurodegenerative disorders through pharmacological dermal activation of cranial nerves” (GLIA, LLC, priority 2016, dated 2018).

Holding throughout (type): in vivo, human
One data set relates to chronic ocular GVHD. Nature of the data set: Example 4: chronic ocular GVHD, progesterone 1% to the forehead. The conditions noted are these: after 4 weeks. The source says: A patient with chronic ocular GVHD, upon examination, had numerous ocular surface conditions as well as damaged Meibomian glands and ocular disease behind the eye. There was notable ocular surface disease including no visible production of tear film observed by Tearscope, profuse exudate in eyes, lid sticking, and recurring filamentary keratitis.

Data set [1] deals with herpes ophthalmicus and herpes keratitis. In words: Example 8: herpes ophthalmicus and herpes keratitis patient. The source says:
A patient experienced an episode of herpes ophthalmicus and herpes keratitis in September 2003, resulting in thinning melt of the left cornea, loss of vision, inflammation, neuralgia, and a rash of blisters to the left forehead, upper nose, and temple with a subsequent full left-face palsy droop, which required multiple cosmetic surgical procedures to provide some symmetry to the face and partial closure to the eyelids of the left eye.
No corneal graft to the left eye could be attempted due to recurrent thinning of the full cornea and inflammation of the vasculature. The patient was treated with ophthalmic prednisolone, topical and systemic antivirals, topical antibiotics, bandage lens, punctal plugs, and over-the-counter artificial tears and gels. This treatment regimen was continued until January 2011 when the cornea thinned to probable melt-through, necessitating corneal patch surgery. Just prior to the surgery, the patient's vision was measured at 20/2000, or finger vision.
The patient started applying 1% progesterone to their forehead twice daily just before corneal patch surgery planned for January 2011. The dose of progesterone was approximately 1 mg per application.
In September 2014, corneal tissue had sufficiently epithelialized at the perimeter to attempt a corneal graft, which was successfully completed. Progesterone 1% was applied daily to the forehead post-surgery. Within 9 months vision was restored to best correct vision pinhole 20/50.
In February 2015, the patient's visual acuity decreased as a result of the rejection of cells at the lower part of the graft. Moderate central staining continued to persist in a band where eyelids could not close. Intraocular pressure (TOP) in the left eye rose to 22 mmHg. The patient was placed on a treatment regimen that included Prednisolone Forte 6× plus Restasis for rejection 2× daily and oral valacycovir, together with mechanically taping the eyelid closed at night.
In May 2016, the patient initiated a course of twice daily dronabinol treatment, 0.5 mg each dose, to both ears. Through July, stabilization was achieved, and all other medications were discontinued. […] Visual acuity improved to 20/40.

The next data set has as its system essential tremor. In words: Example 7: essential tremor subject with contact lens discomfort. As for the experimental part:
A person developed persistent right hand tremors of a kinetic (non-resting) type that has been continuous over the past 6 years. […] This condition had not worsened over time. […] Initially, their doctor thought that these symptoms were stress related and they have been taking 2.5 mg of escitalopram for over 6 years. […] The subject was not on hormone replacement therapy or any other medication.
Concomitantly, the subject suffered from uncomfortable eyes, with a sticky burning sensation and development of blurred vision after about 5-6 hours of contact lens wear. For the past 3 years, the subject was administered 1% progesterone gel (1 mg per day) by dermal application to the forehead once per night. The progesterone gel prolonged comfortable contact lens wear time with sustained visual acuity from 5-6 hours to greater than 15 hours. […] After 2 years of treatment, the benefits of progesterone dermal application persisted for at least 3 days without treatment. There was no effect of the progesterone on their tremor symptoms.
After allowing for washout of progesterone for 3 days, they began forehead application of 0.5-0.75 mg dronabinol once daily at night.
The dronabinol administration regimen was altered by dividing equally the once daily dose of 0.5-0.75 mg dronabinol between the conchae of the left ear, the conchae of the right ear, and the forehead. […] Comfortable contact lens wear, with ease of insertion and removal, and visual acuity extends for 15 hours or more after dronabinol application.
Contact lens comfort wear duration was greater than 15 hours.
In April 2017, the subject, while still being treated with 1% progesterone applied to the forehead, instituted a once-daily low dose topical testosterone applied to the forehead and ear conchae to determine if doing so would produce a beneficial impact on further tremor reduction and in particular essential tremor triggered by caffeine consumption. […] They stopped the treatment to assess whether the tremor would return to pre-testosterone treatment levels. As of August 2017, the subject is without noticeable tremor. The caffeine trigger for tremor onset, which had been recognized throughout all treatments, has not re-appeared since the completion of the 4-week testosterone treatment. The subject continues on low-dose progesterone 1% applied daily to the forehead as the only treatment.

Data set [2] deals with Parkinson's disease symptoms. In words: Example 2: Parkinson's disease subject, topical progesterone and testosterone. The source says:
A person was diagnosed with Parkinson's disease in August of 2015. Notable symptoms include both resting and action tremor of the left hand and fingers, forearm, and, to a lesser extent, the right hand and the left leg. Handwriting and computer keyboard work were difficult. They had ocular symptoms associated with the disease, including dry eye disease with moderate to severe burning and grittiness, rapid blink rate, and partial blinking. They used artificial tears constantly in an attempt to alleviate the ocular symptoms. They had not been on any Parkinson's medications. Their Parkinson's tremor followed an “on-off” cycle that correlated with their stress levels, the “on” cycle being times with low stress and few symptoms, and the “off” cycle induced by stress showing an increase in symptoms.
In late February 2017, the subject started applying single daily doses of 0.125% testosterone to the forehead and ear conchae. By the third day of treatment, the subject was tremor-free for periods of 4-6 hours, and the “on” part of the cycle was more frequent. […] The dose of testosterone was increased to 0.2% once daily in early April.
In July 2017, testosterone application was stopped after a taper to evaluate its effects. […] On Aug. 17, 2017, they reported extreme anxiety.
That same afternoon, the subject applied 0.2% testosterone to their forehead and ear conchae, and the next day reported less anxiety and more “on” cycles. By Aug. 20, 2017, they reported having stabilized on the once daily applications with a 60% or greater increase in “on” periods. On August 28, they reported going 9 hours without tremors and leg spasms. On Aug. 30, 2017, the subject was able to walk 8 miles and exercised in between. They described themself as feeling 100%.

Where [3] appears, read: progesterone 0.5% to the concha of both ears.

As to `CC(=O)[C@H]1CC[C@H]2[C@@H]3CCC4=CC(=O)CC[C@]4(C)[C@H]3CC[C@]12C` [progesterone], in the data set with chronic ocular GVHD, the “exudate in both eyes” value is “noticeable decrease in exudate”; the “lid sticking and friction” value was “improvement in lid sticking and friction”; the “tear film production by Tearscope” value is “tear film production was observed”. For the same compound, the corneal thinning entry in data set [1] (1% progesterone to forehead twice daily, approximately 1 mg per application, from January 2011) was “corneal thinning stabilized”. Further, in data set [1] (Progesterone 1% daily to forehead after corneal graft, within 9 months), the “best correct vision pinhole” value is recorded as 20/50. In addition, the corneal melt-through result in data set [1] (progesterone treatment continued over two years) is listed as “without corneal melt-through”. Moreover, the “tear film breakup and meibomian glands” value in data set [1] (when using Progesterone 1%) is “tear film breakup was normal and meibomian glands functioned well”. In the data set with essential tremor (1% progesterone gel (1 mg per day) to forehead), the tremor symptoms result was “no effect”. The “comfortable contact lens wear time with sustained visual acuity” value with essential tremor (1% progesterone gel (1 mg per day) to forehead once per night, from 5-6 hours before) is given as “greater than 15 hours”. In the data set with essential tremor (after 2 years of progesterone dermal application to forehead), the “persistence of benefits without treatment” value is reported as “at least 3 days”. In the data set on essential tremor (human, in vivo), the adverse events entry is “no adverse events”; the “routine mammography and serum hormone levels” value is “normal”. Moreover, the “comfortable contact lens wear” value in the data set with essential tremor (low dose progesterone 1% to the forehead only, daily, 12 months up to August 2017) stood at 15 h. The “tremor on maintenance treatment” value in the data set with essential tremor (maintenance dose of progesterone 1% to forehead after testosterone course) is recorded as “tremor-free”. Moreover, in the data set on essential tremor (setting [3]), the “contact lens comfort wear duration” value was “greater than 15 hours” and the hand tremor entry is listed as “subsided to the same degree as it did with dronabinol treatment”. Also, the tremors result in data set [2] (progesterone 1% to forehead) is listed as “no impact on the tremors”. In addition, the dry eye disease entry in data set [2] (progesterone 1% to forehead, within the first week) was “dry eye disease resolved”. Besides, the tremor symptoms entry in data set [2] (topical progesterone additionally applied to the ear conchae) is “minimal impact on tremor symptoms”. The dry eye disease result in data set [2] (topical progesterone continued during testosterone abstinence) was “continued to be well managed”.
